Experimental data taken from patent US11464770B2, “Anticancer pharmaceutical composition” (NATIONAL CANCER CENTER, priority 2016, dated 2022).
Read-outs that look alike come from different tables or passages of the source.

Assays:
[1] = system: cervical carcinoma cell lines; assay: Cell based assay, cell viability (CellTiter-Glo), cervical carcinoma cell lines; details: Homo sapiens; HeLa cells
Protocol: (§1) Commercially available bladder cancer, prostate cancer, lung cancer, breast cancer, blood cancer, pancreatic cancer, colorectal cancer, brain cancer, neuroblastoma, melanoma, liver cancer, cervical carcinoma, ovarian cancer, renal cancer, and papilloma cell lines were each treated with trypsin-EDTA and cultured, followed by being seeded in each well of a 96 well plate. […] The treated cells were additionally cultured for 72 hours, and cell viability was measured by using an ATP detection method (CellTiter-Glo® Luminescent Cell Viability Assay, Promega).

[2] = system: lung cancer cell lines (e.g. NCI-H23, NCI-H1229); assay: Cell based assay, cell viability (CellTiter-Glo), lung cancer cell lines; details: Homo sapiens, 72 hours treatment, CellTiter-Glo
Protocol: Commercially available bladder cancer, prostate cancer, lung cancer, breast cancer, blood cancer, pancreatic cancer, colorectal cancer, brain cancer, neuroblastoma, melanoma, liver cancer, cervical carcinoma, ovarian cancer, renal cancer, and papilloma cell lines were each treated with trypsin-EDTA and cultured, followed by being seeded in each well of a 96 well plate. After 24 hours of treatment at constant temperature, the respective cells were treated with the candidate compound so that a final concentration became 0 to 2 μM. The treated cells were additionally cultured for 72 hours, and cell viability was measured by using an ATP detection method (CellTiter-Glo® Luminescent Cell Viability Assay, Promega).

[3] = system: brain cancer cell lines; assay: Cell based assay, cell viability (CellTiter-Glo), brain cancer cell lines; details: Homo sapiens
Protocol: as §1

[4] = A549 cells, read-out: IC50, lung cancer cell line A549
[5] = DMS 114 cells, read-out: IC50, lung cancer cell line DMS 114
[6] = NCI-H23 cells, read-out: IC50, lung cancer cell line NCI-H23
[7] = NCI-H460 cells, read-out: IC50, lung cancer cell line NCI-H460
[8] = NCI-H522 cells, read-out: IC50, lung cancer cell line NCI-H522
[9] = NCI-H1299 cells, read-out: IC50, lung cancer cell line NCI-H1299
[10] = NCI-H1437 cells, read-out: IC50, lung cancer cell line NCI-H1437
[11] = U138-MG, U-138 MG cell line, read-out: IC50, Brain cancer cell line U-138 MG
[12] = T98G cell line, read-out: IC50, Brain cancer cell line T98G
[13] = U-251 MG cell line, read-out: IC50, Brain cancer cell line U-251 MG

SMILES | IC50 [1] [µM] | IC50 [2, 4] [nM] | IC50 [2, 5] [nM] | IC50 ([2]; MRC-5 cells, read-out: IC50) [nM] | IC50 [2, 6] [nM] | IC50 [2, 7] [nM] | IC50 [2, 8] [nM] | IC50 [2, 9] [nM] | IC50 [2, 10] [nM] | IC50 [3, 11] [nM] | IC50 [3, 12] [nM] | IC50 [3, 13] [nM]
CC(=O)c1c(Sc2ccccc2)[nH]c2c(Br)ccc(Cl)c2c1=O [Compound 12, 3-acetyl-8-bromo-5-chloro-2-(phenylthio)quinolin-4(1H)-one] | > 10 | > 2000 | > 2000 | > 2000 | > 2000 | > 2000 | > 2000 | > 2000 | > 10000 | > 10000 | > 10000 | > 2000
CC(=O)c1c([S+]([O-])Cc2cccc(S(F)(F)(F)(F)F)c2)[nH]c2c(Br)ccc(Cl)c2c1=O (stereo not drawn) [Compound 77, 3-acetyl-8-bromo-5-chloro-2-((3-(pentafluoro--sulfanyl)benzyl)sulfinyl)quinolin-4(1H)-one] | > 10 | 1840 | > 2000 | 1060 | 960 | 1510 | > 2000 | 1320 | > 10000 | 1550 | > 2000 | 1290
CC(=O)c1c([S+]([O-])Cc2ccc(Cl)cc2)[nH]c2c(Br)ccc(Cl)c2c1=O (stereo not drawn) [Compound 11, 3-acetyl-8-bromo-5-chloro-2-((4-chlorobenzyl)sulfinyl)quinolin-4(1H)-one] | > 10 | > 2000 | > 2000 | > 2000 | 1550 | > 2000 | > 2000 | > 2000 | > 10000 | > 2000 | > 10000 | > 2000
CC(=O)c1c(SCc2cccc(I)c2)[nH]c2c(Br)ccc(Cl)c2c1=O [Compound 47, 3-acetyl-8-bromo-5-chloro-2-((3-iodobenzyl)thio)quinolin-4(1H)-one] | > 10 | > 2000 | > 2000 | > 2000 | > 2000 | > 2000 | > 2000 | > 2000 | > 10000 | > 10000 | > 10000 | > 2000
CCS(=O)(=O)n1c([S+](C)[O-])c(C(C)=O)c(=O)c2c(Cl)ccc(Br)c21 (stereo not drawn) [Compound 39, 3-acetyl-8-bromo-5-chloro-1-(ethylsulfonyl)-2-(methylsulfinyl)quinolin-4(1H)-one] | > 10 | > 2000 | > 2000 | > 2000 | > 2000 | > 2000 | > 2000 | > 2000 | > 10000 | > 10000 | > 10000 | > 2000
CC(=O)c1c([S+]([O-])C(C)c2ccccc2)[nH]c2c(Br)ccc(Cl)c2c1=O (stereo not drawn) [Compound 26, 3-acetyl-8-bromo-5-chloro-2-((1-phenylethyl)sulfinyl)quinolin-4(1H)-one] | > 10 | > 2000 | > 2000 | > 2000 | > 2000 | > 2000 | > 2000 | > 2000 | > 10000 | > 2000 | > 2000 | > 2000
CC(C)C(=O)c1c([S+]([O-])Cc2ccc(SC(F)(F)F)cc2)[nH]c2c(F)ccc(F)c2c1=O (stereo not drawn) [Compound 85, 5,8-difluoro-3-isobutyryl-2-((4-((trifluoromethyl)thio)benzyl)sulfinyl)quinolin-4(1H)-one] | > 10 | > 2000 | > 2000 | > 2000 | > 2000 | > 2000 | > 2000 | > 2000 | > 10000 | > 10000 | > 10000 | > 2000
CSc1c(C(C)=O)c(=O)c2cc(F)ccc2n1C [Compound 7, 3-acetyl-6-fluoro-1-methyl-2-(methylthio)quinolin-4(1H)-one] | > 10 | > 2000 | > 2000 | > 2000 | > 2000 | > 2000 | > 2000 | > 2000 | > 10000 | > 10000 | > 10000 | > 2000
COC(=O)c1ccc(C[S+]([O-])c2[nH]c3c(Cl)ccc(Cl)c3c(=O)c2C(C)=O)cc1 (stereo not drawn) [Compound 91, methyl 4-(((3-acetyl-5,8-dichloro-4-oxo-1,4-dihydroquinolin-2-yl)sulfinyl)methyl)benzoate] | > 10 | > 2000 | > 2000 | > 2000 | 1800 | > 2000 | > 2000 | > 2000 | > 10000 | > 2000 | > 10000 | > 2000
CC(=O)c1c([S+]([O-])Cc2cccc(I)c2)[nH]c2c(Br)ccc(Cl)c2c1=O (stereo not drawn) [Compound 48, 3-acetyl-8-bromo-5-chloro-2-((3-iodobenzyl)sulfinyl)quinolin-4(1H)-one] | > 10 | > 2000 | > 2000 | > 2000 | 1510 | > 2000 | > 2000 | > 2000 | > 10000 | > 2000 | > 10000 | > 2000
CSc1c(C(C)=O)c(=O)c2c(Cl)ccc(Br)c2n1S(=O)(=O)c1ccc([N+](=O)[O-])cc1 [Compound 38, 3-acetyl-8-bromo-5-chloro-2-(methylthio)-1-((4-nitrophenyl)sulfonyl)quinolin-4(1H)-one] | > 10 | > 2000 | > 2000 | > 2000 | > 2000 | > 2000 | > 2000 | > 2000 | > 10000 | > 10000 | > 10000 | > 2000
CC(=O)c1c([S+]([O-])Cc2ccc(C(F)(F)F)o2)[nH]c2c(F)ccc(F)c2c1=O (stereo not drawn) [Compound 81, 3-acetyl-5,8-difluoro-2-(((5-(trifluoromethyl)furan-2-yl)methyl)sulfinyl)quinolin-4(1H)-one] | > 10 | > 2000 | > 2000 | > 2000 | > 2000 | > 2000 | > 2000 | > 2000 | > 10000 | > 2000 | > 10000 | > 2000
CC(=O)c1c([S+]([O-])Cc2cccc(C#N)c2)[nH]c2c(Br)ccc(Cl)c2c1=O (stereo not drawn) [Compound 28, 3-(((3-acetyl-8-bromo-5-chloro-4-oxo-1,4-dihydroquinolin-2-yl)sulfinyl)methyl)benzonitrile] | > 10 | > 2000 | > 2000 | 700 | 750 | 1600 | 1880 | 1110 | > 10000 | 1260 | > 10000 | 880
O=C(c1ccccc1)c1c([S+]([O-])Cc2ccc(S(F)(F)(F)(F)F)cc2)[nH]c2c(F)ccc(F)c2c1=O (stereo not drawn) [Compound 87, 3-benzoyl-5,8-difluoro-2-((4-(pentafluoro--sulfanyl)benzyl)sulfinyl)quinolin-4(1H)-one] | > 10 | > 2000 | > 2000 | > 2000 | > 2000 | > 2000 | > 2000 | > 2000 | > 10000 | > 10000 | > 10000 | > 2000
CC(=O)c1c([S+]([O-])Cc2ccc(S(F)(F)(F)(F)F)cc2)[nH]c2c(F)ccc(F)c2c1=O (stereo not drawn) [Compound 80, 3-acetyl-5,8-difluoro-2-((4-(pentafluoro--sulfanyl)benzyl)sulfinyl)quinolin-4(1H)-one] | > 10 | > 2000 | > 2000 | > 2000 | > 2000 | > 2000 | > 2000 | > 2000 | > 10000 | > 10000 | > 10000 | > 2000
CC(=O)c1c([S+]([O-])c2ccc(Br)cc2)[nH]c2c(Br)ccc(Cl)c2c1=O (stereo not drawn) [Compound 17, 3-acetyl-8-bromo-2-((4-bromophenyl)sulfinyl)-5-chloroquinolin-4(1H)-one] | > 10 | > 2000 | > 2000 | > 2000 | > 2000 | > 2000 | > 2000 | > 2000 | > 10000 | > 10000 | > 10000 | > 2000
CC(=O)c1c([S+]([O-])Cc2ccccc2)nc2c(Br)ccc(Cl)c2c1O (stereo not drawn) [Compound 53, 1-(2-(benzylsulfinyl)-8-bromo-5-chloro-4-hydroxyquinolin-3-yl)ethan-1-one] | > 10 | > 2000 | > 2000 | > 2000 | > 2000 | > 2000 | > 2000 | > 2000 | > 10000 | > 10000 | > 10000 | > 2000
CC(=O)c1c([S+]([O-])Cc2cc(C)on2)[nH]c2c(F)ccc(F)c2c1=O (stereo not drawn) [Compound 82, 3-acetyl-5,8-difluoro-2-(((5-methylisoxazol-3-yl)methyl)sulfinyl)quinolin-4(1H)-one] | > 10 | > 2000 | > 2000 | > 2000 | > 2000 | > 2000 | > 2000 | > 2000 | > 10000 | > 2000 | > 10000 | > 2000
COc1ccccc1[S+]([O-])c1[nH]c2c(Br)ccc(Cl)c2c(=O)c1C(C)=O (stereo not drawn) [Compound 15, 3-acetyl-8-bromo-5-chloro-2-((2-methoxyphenyl)sulfinyl)quinolin-4(1H)-one] | > 10 | > 2000 | > 2000 | > 2000 | 1560 | > 2000 | > 2000 | > 2000 | > 10000 | > 2000 | > 10000 | > 2000
CC(=O)c1c([S+]([O-])Cc2ccccc2)nc2c(Br)ccc(Cl)c2c1O (stereo not drawn) [Compound 4] | > 10 | 1970 | > 2000 | 910 | 920 | 1650 | > 2000 | 1400 | > 2000 | 1810 | > 10000 | 1220
